The source of these data is paper PMC10924921, “Mi-2β promotes immune evasion in melanoma by activating EZH2 methylation” (Nature Communications, 2024).

Common to all, as to assay: biochemical
What all share (parameters): KINOMEscan active-site competition binding panel (468 kinase assays), per cent of control at 1000 nM
Holding throughout (details): KINOMEscan per cent of control (binding competition); read-out: Percent Control

The target of one assay is NEK5 (Homo sapiens, UniProt Q6P3R8). The source says: (§1) Figure S7 / Percent Control
The next assay deals with T1, DMPK2 (Homo sapiens, UniProt Q6DT37).
T1 construct: gene CDC42BPG
Text: as §1

A further assay concerns the target BRAF (Homo sapiens, UniProt P15056).
Text: as §1

Another assay has as its target INSRR (Homo sapiens, UniProt P14616).
Text: as §1

For another assay, the target named is T2, ERK3 (Homo sapiens, UniProt Q16659).
T2 construct: gene MAPK6
Text: as §1

The target in another assay is T3, MLK1 (Homo sapiens, UniProt P80192).
T3 construct: gene MAP3K9
Text: as §1

Another assay concerns the target T4, RIPK5 (Homo sapiens, UniProt Q6XUX3).
T4 construct: gene DSTYK
Text: as §1

Another assay addresses TAOK3 (Homo sapiens, UniProt Q9H2K8).
Text: as §1

The next assay deals with T5, IKK-beta (Homo sapiens, UniProt O14920).
T5 construct: gene IKBKB
Text: as §1

For another assay, the target named is T6, TAK1 (Homo sapiens, UniProt O43318).
T6 construct: gene MAP3K7
Text: as §1

Another assay concerns the target MKNK1 (Homo sapiens, UniProt Q9BUB5).
Text: as §1

The next assay addresses LCK (Homo sapiens, UniProt P06239).
Text: as §1

The target in a further assay is T7, JNK2 (Homo sapiens, UniProt P45984).
T7 construct: gene MAPK9
Text: as §1

The target of a further assay is EPHA7 (Homo sapiens, UniProt Q15375).
Text: as §1

The next assay has as its target PIM1 (Homo sapiens, UniProt P11309).
Text: as §1

The next assay addresses CSNK1E (Homo sapiens, UniProt P49674).
Text: as §1

A further assay deals with T8, DCAMKL1 (Homo sapiens, UniProt O15075).
T8 construct: gene DCLK1
Text: as §1

The target in the next assay is STK36 (Homo sapiens, UniProt Q9NRP7).
Text: as §1

Another assay has as its target ULK3 (Homo sapiens, UniProt Q6PHR2).
Text: as §1

Another assay concerns the target PIK3CA(Q546K) (Homo sapiens, UniProt P42336, Q546K).
Text: as §1

The target in assay [1] is T9, RPS6KA4(Kin.Dom.2-C-terminal) (Homo sapiens, UniProt O75676).
T9 construct: Kin.Dom.2-C-terminal
Text: as §1

The target of another assay is MAP4K3 (Homo sapiens, UniProt Q8IVH8).
Text: as §1

Another assay has as its target PIK3CD (Homo sapiens, UniProt O00329).
Text: as §1

A further assay deals with EIF2AK1 (Homo sapiens, UniProt Q9BQI3).
Text: as §1

T2 sequence (Q16659 whole entry): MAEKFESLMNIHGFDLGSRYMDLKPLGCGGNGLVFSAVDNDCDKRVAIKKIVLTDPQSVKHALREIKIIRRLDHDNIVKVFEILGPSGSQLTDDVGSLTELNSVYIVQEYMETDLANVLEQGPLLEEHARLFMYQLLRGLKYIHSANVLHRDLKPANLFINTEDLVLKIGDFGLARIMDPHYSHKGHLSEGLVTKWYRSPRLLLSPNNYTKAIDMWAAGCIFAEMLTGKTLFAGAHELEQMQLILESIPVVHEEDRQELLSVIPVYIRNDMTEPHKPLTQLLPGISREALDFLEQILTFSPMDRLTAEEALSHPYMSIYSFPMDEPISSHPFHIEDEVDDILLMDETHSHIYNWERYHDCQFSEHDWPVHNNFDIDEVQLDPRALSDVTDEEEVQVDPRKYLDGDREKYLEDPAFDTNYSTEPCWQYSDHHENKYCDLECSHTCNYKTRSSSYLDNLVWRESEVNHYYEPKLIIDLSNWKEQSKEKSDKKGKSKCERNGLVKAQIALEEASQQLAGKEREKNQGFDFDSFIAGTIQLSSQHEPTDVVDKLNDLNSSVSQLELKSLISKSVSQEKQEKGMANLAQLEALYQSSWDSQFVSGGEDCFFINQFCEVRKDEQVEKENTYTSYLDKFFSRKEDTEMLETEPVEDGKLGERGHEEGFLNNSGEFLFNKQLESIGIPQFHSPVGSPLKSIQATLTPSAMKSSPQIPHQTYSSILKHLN
Chain of PIM1 (P11309 whole entry): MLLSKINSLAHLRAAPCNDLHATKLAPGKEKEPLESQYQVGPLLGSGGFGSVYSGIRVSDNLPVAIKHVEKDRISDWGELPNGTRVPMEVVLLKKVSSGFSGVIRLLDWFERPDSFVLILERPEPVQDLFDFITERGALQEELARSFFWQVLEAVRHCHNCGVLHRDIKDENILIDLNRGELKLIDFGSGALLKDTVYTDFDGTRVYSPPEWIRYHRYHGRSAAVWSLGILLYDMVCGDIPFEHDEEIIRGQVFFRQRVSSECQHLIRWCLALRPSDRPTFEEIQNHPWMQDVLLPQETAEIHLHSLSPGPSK
Chain of TAOK3 (Q9H2K8 whole entry): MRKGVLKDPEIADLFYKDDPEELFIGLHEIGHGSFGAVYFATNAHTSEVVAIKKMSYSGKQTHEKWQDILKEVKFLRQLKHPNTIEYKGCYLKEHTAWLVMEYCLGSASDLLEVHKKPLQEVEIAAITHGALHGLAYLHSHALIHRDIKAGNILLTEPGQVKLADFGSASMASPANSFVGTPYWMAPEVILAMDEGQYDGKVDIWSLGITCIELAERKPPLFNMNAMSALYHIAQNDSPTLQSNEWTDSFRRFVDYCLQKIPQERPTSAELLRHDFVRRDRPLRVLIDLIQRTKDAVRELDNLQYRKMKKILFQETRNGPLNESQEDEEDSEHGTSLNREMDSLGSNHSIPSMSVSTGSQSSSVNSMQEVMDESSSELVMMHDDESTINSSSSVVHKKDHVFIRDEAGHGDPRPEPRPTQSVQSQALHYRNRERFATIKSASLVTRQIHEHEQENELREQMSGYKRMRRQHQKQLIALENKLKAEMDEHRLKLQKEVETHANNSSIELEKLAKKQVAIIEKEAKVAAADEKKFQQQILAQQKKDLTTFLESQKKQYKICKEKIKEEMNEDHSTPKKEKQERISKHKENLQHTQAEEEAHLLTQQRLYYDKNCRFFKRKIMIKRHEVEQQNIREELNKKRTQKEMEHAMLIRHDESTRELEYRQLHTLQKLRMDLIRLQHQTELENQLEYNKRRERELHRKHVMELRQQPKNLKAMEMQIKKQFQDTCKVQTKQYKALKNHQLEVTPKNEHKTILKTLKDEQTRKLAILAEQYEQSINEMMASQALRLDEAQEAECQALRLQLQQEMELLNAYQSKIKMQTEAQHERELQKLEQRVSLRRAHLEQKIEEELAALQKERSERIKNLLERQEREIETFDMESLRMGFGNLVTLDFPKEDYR
T6 sequence (O43318 whole entry): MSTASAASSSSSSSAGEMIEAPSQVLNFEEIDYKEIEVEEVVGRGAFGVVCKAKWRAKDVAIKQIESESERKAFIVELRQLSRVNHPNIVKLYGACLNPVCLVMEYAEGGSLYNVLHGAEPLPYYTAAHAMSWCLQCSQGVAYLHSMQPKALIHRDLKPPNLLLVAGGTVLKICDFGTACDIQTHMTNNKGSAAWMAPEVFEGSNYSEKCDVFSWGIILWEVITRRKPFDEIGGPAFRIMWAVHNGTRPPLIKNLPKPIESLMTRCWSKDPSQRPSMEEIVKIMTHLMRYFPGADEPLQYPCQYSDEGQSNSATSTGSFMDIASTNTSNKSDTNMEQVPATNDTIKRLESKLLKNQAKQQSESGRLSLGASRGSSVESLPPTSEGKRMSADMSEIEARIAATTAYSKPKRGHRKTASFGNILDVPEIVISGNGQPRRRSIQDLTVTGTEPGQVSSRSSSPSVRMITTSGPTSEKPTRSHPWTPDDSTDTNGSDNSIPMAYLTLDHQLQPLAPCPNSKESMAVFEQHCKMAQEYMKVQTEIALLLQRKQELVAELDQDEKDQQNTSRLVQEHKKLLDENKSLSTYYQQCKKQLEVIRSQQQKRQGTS
Chain of PIK3CD (O00329 whole entry): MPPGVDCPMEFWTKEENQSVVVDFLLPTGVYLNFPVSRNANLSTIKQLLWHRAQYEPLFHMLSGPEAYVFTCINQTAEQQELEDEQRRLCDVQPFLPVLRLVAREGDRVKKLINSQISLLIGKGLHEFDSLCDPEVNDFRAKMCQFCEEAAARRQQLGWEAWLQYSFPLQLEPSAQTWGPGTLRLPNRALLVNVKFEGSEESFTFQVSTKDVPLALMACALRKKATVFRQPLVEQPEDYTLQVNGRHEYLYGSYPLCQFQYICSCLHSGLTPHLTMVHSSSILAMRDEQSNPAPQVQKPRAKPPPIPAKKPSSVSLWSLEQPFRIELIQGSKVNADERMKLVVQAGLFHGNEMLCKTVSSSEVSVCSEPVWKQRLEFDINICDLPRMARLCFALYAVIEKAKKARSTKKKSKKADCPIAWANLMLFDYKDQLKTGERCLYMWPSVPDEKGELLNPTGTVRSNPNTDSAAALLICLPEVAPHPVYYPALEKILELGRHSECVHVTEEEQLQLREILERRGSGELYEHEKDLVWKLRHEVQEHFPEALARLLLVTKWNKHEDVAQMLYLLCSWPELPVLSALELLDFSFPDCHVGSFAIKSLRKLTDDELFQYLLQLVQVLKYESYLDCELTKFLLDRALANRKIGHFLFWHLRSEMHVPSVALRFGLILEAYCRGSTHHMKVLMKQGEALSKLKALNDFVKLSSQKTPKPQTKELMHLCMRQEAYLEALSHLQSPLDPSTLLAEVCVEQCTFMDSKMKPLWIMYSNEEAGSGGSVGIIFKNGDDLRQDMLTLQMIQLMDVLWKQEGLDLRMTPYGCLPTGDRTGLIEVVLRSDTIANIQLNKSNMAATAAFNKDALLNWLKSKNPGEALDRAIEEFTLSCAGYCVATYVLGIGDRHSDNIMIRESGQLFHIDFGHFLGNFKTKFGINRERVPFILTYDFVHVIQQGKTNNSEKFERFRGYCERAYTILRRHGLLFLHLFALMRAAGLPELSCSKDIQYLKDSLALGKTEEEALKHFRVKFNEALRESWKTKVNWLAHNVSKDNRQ
Chain of NEK5 (Q6P3R8 whole entry): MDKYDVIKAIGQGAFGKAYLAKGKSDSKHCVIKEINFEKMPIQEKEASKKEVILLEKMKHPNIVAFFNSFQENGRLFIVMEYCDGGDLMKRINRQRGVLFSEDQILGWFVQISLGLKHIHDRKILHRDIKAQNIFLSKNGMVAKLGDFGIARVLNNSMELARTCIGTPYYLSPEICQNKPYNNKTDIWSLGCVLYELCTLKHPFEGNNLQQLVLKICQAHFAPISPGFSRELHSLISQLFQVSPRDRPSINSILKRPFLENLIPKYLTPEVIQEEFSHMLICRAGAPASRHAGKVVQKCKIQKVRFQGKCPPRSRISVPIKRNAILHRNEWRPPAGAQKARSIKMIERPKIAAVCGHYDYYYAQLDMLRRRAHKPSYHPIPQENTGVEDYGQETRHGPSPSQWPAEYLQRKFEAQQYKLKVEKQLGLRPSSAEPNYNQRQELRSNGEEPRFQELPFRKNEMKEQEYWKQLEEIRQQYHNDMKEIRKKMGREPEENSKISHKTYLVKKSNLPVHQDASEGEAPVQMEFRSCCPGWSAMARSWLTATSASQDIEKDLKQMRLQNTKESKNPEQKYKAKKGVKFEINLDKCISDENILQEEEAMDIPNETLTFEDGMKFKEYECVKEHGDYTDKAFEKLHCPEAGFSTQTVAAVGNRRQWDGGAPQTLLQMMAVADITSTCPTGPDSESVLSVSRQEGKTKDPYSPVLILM
T9 sequence (O75676 whole entry): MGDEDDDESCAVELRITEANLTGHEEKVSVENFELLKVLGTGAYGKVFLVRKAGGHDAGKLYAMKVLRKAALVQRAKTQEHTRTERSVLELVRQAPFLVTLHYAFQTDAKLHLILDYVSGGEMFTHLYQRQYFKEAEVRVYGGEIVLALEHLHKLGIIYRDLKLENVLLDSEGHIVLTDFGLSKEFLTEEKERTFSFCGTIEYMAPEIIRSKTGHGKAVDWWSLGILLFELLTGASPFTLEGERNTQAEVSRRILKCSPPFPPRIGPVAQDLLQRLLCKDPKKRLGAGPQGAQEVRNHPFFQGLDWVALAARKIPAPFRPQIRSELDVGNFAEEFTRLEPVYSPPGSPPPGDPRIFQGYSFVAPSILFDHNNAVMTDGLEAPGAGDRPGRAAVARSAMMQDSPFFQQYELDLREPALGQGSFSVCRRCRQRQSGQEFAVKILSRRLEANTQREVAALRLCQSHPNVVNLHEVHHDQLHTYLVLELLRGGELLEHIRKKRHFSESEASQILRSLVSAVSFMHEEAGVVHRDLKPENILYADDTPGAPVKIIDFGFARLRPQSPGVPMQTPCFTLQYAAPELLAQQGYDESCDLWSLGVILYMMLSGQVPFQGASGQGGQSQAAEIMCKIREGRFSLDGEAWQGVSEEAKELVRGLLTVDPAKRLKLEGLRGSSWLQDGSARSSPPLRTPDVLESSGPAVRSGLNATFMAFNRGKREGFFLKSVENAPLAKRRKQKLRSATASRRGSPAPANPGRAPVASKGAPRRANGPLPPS

For `Cn1c(=O)[nH]c2ccc(-c3cccc(C(=O)NC4CCn5ccnc5C4)c3)cc21` (stereo not drawn) [Z36-MP5], the remaining binding at 1 µM stood at 90% at NEK5; 99% at DMPK2; 88% on BRAF; 86% at INSRR; 90% on ERK3; 98% on MLK1. Further, the remaining binding at 1 µM on RIPK5 is 54%; at TAOK3, 54%; on IKK-beta it was 66%; on TAK1, 84%; at MKNK1 it was 100%; on LCK it was 49%. Moreover, the remaining binding at 1 µM was 54% at JNK2; 93% at EPHA7; 90% on PIM1; 49% on CSNK1E; 53% on DCAMKL1; 77% on STK36. In addition, the remaining binding at 1 µM at ULK3 came out at 71%; at PIK3CA(Q546K) it was 54%; in [1] it was 59%; on MAP4K3 it was 51%; at PIK3CD, 74%; on EIF2AK1 it was 73%.
